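Compound exposure: 48 hours, 5 concentrations, 96-well plates. Abbreviation: GI50, concentration required for 50% inhibition of growth. The concentration for full growth arrest is given as TGI.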
Assays:
Test in all cases: inhibition of tumour cell growth, NCI panel, 48 h
[1] = test system: SN12C renal
[2] = test system: ACHN renal
[3] = test system: SF-539 CNS
[4] = test system: SNB-19 CNS
[5] = test system: NCI-H226 lung
[6] = test system: MALME-3M melanoma
[7] = test system: SF-295 CNS
[8] = test system: HS 578T breast
[9] = test system: SNB-75 CNS
[10] = test system: EKVX NSCLC

| Structure (SMILES) | GI50 [1] [µM] | TGI [1] [µM] | GI50 [2] [µM] | TGI [2] [µM] | GI50 [3] [µM] | TGI [3] [µM] | GI50 [4] [µM] | TGI [4] [µM] | GI50 [5] [µM] | TGI [5] [µM] | GI50 [6] [µM] | TGI [6] [µM] | GI50 [7] [µM] | TGI [7] [µM] | GI50 [8] [µM] | TGI [8] [µM] | GI50 [9] [µM] | TGI [9] [µM] | GI50 [10] [µM] | TGI [10] [µM] |
| --- | --- | --- | --- | --- | --- | --- | --- | --- | --- | --- | --- | --- | --- | --- | --- | --- | --- | --- | --- | --- |
| C[CH2][Sn]([CH2]C)([O]C(=O)c1ccc(OC)c(OC)c1OC)[O]C(=O)c1ccc(OC)c(OC)c1OC | 99.8 | > 100 | 51.4 | > 78.9 | 44.3 | > 71.8 | 53.5 | > 67.5 | 19.7 | 46 | 21.2 | 50.6 | > 100 | > 100 | 23.2 | 88.8 | 19.1 | 62.8 | > 100 | > 100 |
| C=C1C(=O)O[C@H]2[C@H]1CC/C(COC(=O)NCCCCCCCCNC(=O)OC/C1=C/CC[C@@]3(C)O[C@H]3[C@H]3OC(=O)C(=C)[C@@H]3CC1)=C\CC[C@@]1(C)O[C@@H]21 | 0.264 | 0.849 | 0.258 | 0.662 | 0.235 | 0.599 | – | – | 1.81 | 4.39 | 0.199 | 0.43 | 1.95 | 4.82 | 1.17 | 8.23 | 1.25 | 3.5 | 1.19 | 2.44 |
| C#Cc1cccc(NC(=O)c2ccc(NC(=O)CCl)cc2)c1 | 18.6 | > 82.5 | 26.3 | > 82.5 | 12.6 | 24.7 | 55.6 | > 82.5 | 48.7 | > 82.5 | 16.4 | 53.3 | > 82.5 | > 82.5 | 27.9 | > 82.5 | 17.2 | > 82.5 | > 82.5 | > 82.5 |
| FC(F)(F)c1cc(Nc2ccc3cc(OCCCN4CCOCC4)ccc3n2)ccc1Cl | 2.96 | 12.9 | 2.05 | 4.86 | 1.75 | 3.73 | 1.84 | 3.79 | 2.56 | 11.7 | 1.67 | 4.34 | 1.37 | 3.17 | 1.68 | 4.36 | 1.61 | 3.92 | 2.3 | 6.21 |
| CCN(Cc1ccc(F)cc1)c1ccc(CO)c(OC)c1 | 21.9 | > 100 | 17.1 | 53.7 | 45.1 | > 100 | 43.7 | > 100 | 1.15 | 2.77 | 3.21 | 14.3 | 23.5 | > 84.3 | 14.9 | > 100 | 11.6 | > 100 | – | – |
| COCc1c(-c2ccc(NC(=O)Nc3cc(C(F)(F)F)ccc3F)c(F)c2)c2c(N)ncnn2c1CN1CCOCC1 | 1.39 | > 10 | 1.48 | > 10 | 0.283 | 2.64 | 2.93 | > 10 | 0.0747 | 5.25 | 2.72 | > 10 | 1.56 | 6.54 | 0.138 | 0.733 | 0.492 | 3.25 | 1.71 | 7.62 |
| COc1ccc(N(C)c2nc(Cl)nc3cnn(C)c23)cc1 | < 0.0203 | > 100 | < 0.0145 | > 100 | < 0.01 | – | < 0.0131 | > 100 | < 0.01 | > 100 | – | > 100 | < 0.01 | > 100 | < 0.01 | > 100 | < 0.01 | > 100 | < 0.0178 | > 100 |
| N#CC1C(=O)NC(c2ccccc2[N+](=O)[O-])c2sc3c(F)cccc3c21 (stereo not drawn) | 16.4 | > 96.3 | 15.7 | > 100 | 22 | 72.8 | 22.1 | > 100 | 0.273 | 2.55 | 19.5 | 63.7 | 1.11 | 30.3 | 15.2 | 69.9 | 1.62 | 94.9 | 3.41 | 41.8 |
| Nc1ncnc2c1ccn2[C@@H]1O[C@H]([C@H](O)c2ccc(Cl)c(F)c2)[C@@H](O)[C@H]1O | > 100 | > 100 | > 100 | > 100 | > 100 | > 100 | > 100 | > 100 | 34.5 | > 100 | > 100 | > 100 | > 100 | > 100 | > 100 | > 100 | > 100 | > 100 | > 100 | > 100 |
| C/C(=N/N=C(N)N)c1ccc(NC(=O)Nc2ccc(/C(C)=N/N=C(N)N)cc2)cc1 | 14.2 | 45.7 | 20.7 | > 55.4 | 17.9 | 36.1 | 19.6 | 45 | 25 | > 94.6 | 16.5 | 46.9 | 12.4 | 28.4 | 26.5 | > 66.6 | 17.6 | 38.1 | 19.2 | 49 |
| O=C1NC(c2cccc(OCc3ccccc3)c2)Nc2ccccc21 (stereo not drawn) | – | 30.5 | – | 28.7 | – | 0.708 | – | > 100 | – | 2.44 | – | 35 | – | 4.12 | – | 9.83 | – | 0.896 | – | > 54 |
| Cc1nccc2c3ccc(OCc4cn(-c5ccc(Cl)cc5)nn4)cc3n(CC(C)C)c12 | 3.69 | > 33.3 | 3.62 | 9.59 | 2.82 | 10.9 | 4.5 | > 33.3 | 3.47 | 13.7 | 4.62 | 13 | 1.25 | 7.64 | 2.62 | 30.1 | 5.09 | 14.4 | 2.14 | 32.6 |
| Cn1c2ccccc2c2c(=O)n(CCCC(=O)OC(=NC3CCCCC3)NC3CCCCC3)c3c(-c4ccccc4)nnn3c21 | > 100 | > 100 | > 100 | > 100 | 38.4 | > 100 | > 100 | > 100 | > 100 | > 100 | > 100 | > 100 | 79 | > 100 | > 100 | > 100 | 44.6 | > 100 | > 100 | > 100 |
| O=c1c(Cl)cc2nc3ccccc3sc-2c1Cl | – | 31.9 | – | 30.2 | – | 30.8 | – | 32.9 | – | 32.3 | – | 23.6 | – | 34.4 | – | > 100 | – | 32.7 | – | 14.9 |
| O=C1C=CC2(C=C1)C[C@H](NC(=O)OCc1ccccc1)C(=O)O2 | – | 32.7 | – | 29.5 | – | 44.5 | – | > 100 | – | > 86.7 | – | 26.6 | – | 49.5 | – | > 100 | – | 61.4 | – | 23.7 |
| COC(=O)[C@]12CC[C@@H](C)[C@H](C)[C@@H]1C1=CC[C@@H]3[C@@]4(C)C(C=O)=C[C@@](C)(COC(=O)/C=C/c5ccccc5)[C@@H]4[C@H](O)C[C@@]3(C)[C@]1(C)CC2 | 3.8 | 26.5 | 2.76 | 9.95 | 3.78 | 17.5 | 6.47 | > 100 | 2.36 | 9.66 | 1.99 | 5.14 | 2.06 | 5.78 | 3.72 | 33.8 | 3.37 | 31.5 | 2.86 | 11.5 |
| O=[N+]([O-])c1ccc(Sc2ccncn2)c([N+](=O)[O-])c1 | 3.89 | 15.1 | 2.16 | 5.82 | 2.32 | 6.75 | 10.1 | 23.7 | 7.22 | 23.1 | 1.32 | 3.23 | 7.29 | 20.3 | 3.06 | 24.2 | 2.82 | 13.1 | 2.39 | 8.3 |
| COc1cccc(Nc2nccc(-c3cnn4ncccc34)n2)c1 | 0.0837 | > 25 | 0.0456 | > 25 | 0.0502 | 0.143 | 0.0833 | > 25 | 0.0546 | 0.18 | 0.0739 | 0.204 | 0.0496 | > 25 | 0.0381 | 0.117 | 0.0463 | 0.122 | 0.0709 | – |
| CN1CCN(Cc2ccc(NC(=O)c3cncc(C#Cc4cnc(N)c5cnccc45)c3)cc2C(F)(F)F)CC1 | 0.167 | 5.86 | 0.201 | 1.43 | 0.157 | 0.628 | 1.76 | 10.9 | 0.115 | 4.54 | 0.036 | 0.176 | 0.799 | 7.07 | 0.122 | 0.7 | 0.233 | 1.71 | 0.485 | 4.4 |
| O=C(/C=C/OC(=O)c1cccc(Cl)c1)c1ccc(Cl)cc1 | 28.5 | > 100 | 52.3 | > 100 | 23.1 | 55.2 | > 56.5 | > 100 | > 79 | > 100 | 2.32 | 39 | 27.3 | > 80.1 | 23.2 | > 70.4 | 17.3 | 73.5 | > 100 | > 100 |
| O=[N+]([O-])c1cc2c([N+](=O)[O-])cccc2o1 | – | 27.9 | – | 10.6 | – | 6.67 | – | 36 | – | 30.4 | – | 30.1 | – | 42.4 | – | 43.8 | – | – | – | 6.25 |
| COc1cc(/C=C/C(=O)c2c(C)nc3ccccc3c2C)ccc1OCCCN1CCN(C(=O)c2ccco2)CC1 | 11 | 28.7 | 10.2 | 25.1 | 14.4 | 27.5 | 11.9 | 31.1 | 13.7 | 29.9 | 3.43 | 18.2 | 8.42 | 25.1 | 12 | 51.8 | 12.8 | 27.6 | 7.76 | 42.6 |
| CCCN1CCC(c2ccc(Nc3nc(Nc4cc(F)ccc4C(N)=O)c4cc[nH]c4n3)c(OC)c2)CC1 | 3.62 | 8.55 | 3.13 | 7.03 | 2.95 | 6.76 | 4.15 | 9.73 | 3.83 | 8.91 | 3.13 | 7.54 | 3.86 | 8.37 | 3.84 | 12.3 | 4 | 7.55 | 0.725 | 8.18 |
| CCn1ccc(NS(=O)(=O)c2ccc(N)cc2)nc1=O | > 100 | > 100 | > 100 | > 100 | > 100 | > 100 | > 100 | > 100 | > 100 | > 100 | > 100 | > 100 | > 100 | > 100 | 33.8 | > 100 | > 100 | > 100 | > 100 | > 100 |
| COc1ccc2c(c1OC(C)=O)C1=CC(=O)CCC13CCNC3C2 (stereo not drawn) | – | > 100 | – | > 100 | – | – | – | > 100 | – | > 100 | – | > 100 | – | > 100 | – | > 100 | – | > 100 | – | > 100 |
| CN(C)c1ccc(N=C2C=CC(=O)c3ccccc32)cc1 | 2.54 | 9.28 | 4.1 | 18.4 | 3.11 | 11.4 | 3.42 | 13.9 | 18.2 | 54 | 1.6 | 3.75 | 1.68 | 3.66 | 1.97 | 6.09 | 1.8 | 4.86 | – | – |
| C/C(=N/Nc1nc(C)cc(=O)[nH]1)C(=O)O | – | > 100 | – | > 100 | – | – | – | > 100 | – | > 100 | – | > 100 | – | > 100 | – | > 100 | – | > 100 | – | > 100 |

— PubChem BioAssay (NCI)
